From ChEMBL document CHEMBL1201862, “PubChem BioAssay data set” (2004) come the findings set out here.

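How tested: cells in 96-well plates exposed to compound for 48 hours at five concentrations. At the GI50, growth is halved.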 The source made the active and inactive calls. No stated cut-off is given here; in the data, active = GI50 up to about 1.1 µM and inactive = higher.

Among the test systems are SK-MEL-5; TK-10; MDA-MB-435; BT-549; SW-620; LXFL 529; NCI-H522; KM12; NCI-H226; CAKI-1; SK-OV-3; A498; NCI-H460; IGROV-1; HCT-116; A549; NCI/ADR-RES; LOX IMVI; OVCAR-4; SNB-75.
What all share (experiment): NCI anticancer screen, dose series, 48 h

For `CCOC(=O)c1c(C)c(C)n2c1NC(=O)C2`, the GI50 is > 100 µM (inactive) in the experiment with SK-MEL-5; > 55.8 µM (inactive) in the experiment on TK-10; > 100 µM (inactive) in the experiment on MDA-MB-435; 50.9 µM (inactive) with BT-549; > 54 µM (inactive) in the experiment with SW-620; > 100 µM (inactive) in the experiment on LXFL 529. Further, the GI50 with NCI-H522 is > 43.7 µM (inactive); in the experiment with KM12, > 100 µM (inactive); in the experiment on NCI-H226, > 100 µM (inactive); in the experiment with CAKI-1, > 59.4 µM (inactive); in the experiment with SK-OV-3, > 100 µM (inactive); with A498, > 100 µM (inactive). Besides, the GI50 was > 53.1 µM (inactive) in the experiment with NCI-H460; > 72.1 µM (inactive) in the experiment with IGROV-1; 36.6 µM (inactive) in the experiment with HCT-116; > 82.6 µM (inactive) with A549; 20.4 µM (inactive) with NCI/ADR-RES; > 68.7 µM (inactive) in the experiment with LOX IMVI. For the same compound, the GI50 in the experiment with OVCAR-4 is > 100 µM (inactive); with SNB-75, 39.1 µM (inactive).
With `CC[C@@]1(O)C(=O)OCc2c1cc1n(c2=O)Cc2cc3cc(OC)ccc3nc2-1`, the GI50 in the experiment with SK-MEL-5 was 0.0211 µM (active); with TK-10, 3.01 µM (inactive); with MDA-MB-435 it was 0.0441 µM (active); in the experiment with BT-549 it was 0.0308 µM (active); with SW-620, 0.0248 µM (active); in the experiment on LXFL 529, 0.144 µM (active). Moreover, the GI50 in the experiment with NCI-H522 is 0.0246 µM (active); in the experiment with KM12, 0.139 µM (active); in the experiment on NCI-H226 it was 0.016 µM (active); in the experiment on CAKI-1, 0.00476 µM (active); in the experiment with SK-OV-3, 0.0498 µM (active); in the experiment with A498 it was 0.415 µM (active). Further, the GI50 with NCI-H460 is 0.00607 µM (active); in the experiment on IGROV-1, 0.106 µM (active); in the experiment on HCT-116 it was 0.0197 µM (active); in the experiment on A549, 0.0249 µM (active); in the experiment with NCI/ADR-RES, 0.073 µM (active); with LOX IMVI, 0.0221 µM (active). In addition, the GI50 in the experiment on OVCAR-4 was 0.00845 µM (active); in the experiment on SNB-75 it was 0.00427 µM (active).
